One experiment concerns Cdc42 protein. Put plainly: Nuclear transfer of GFP/Cdc42 fusion protein in transformed HUVEC observed by fluorescence microscopy. The format is cell-based. The conditions noted are these: HUVEC expressing GFP/Cdc42 fusion protein; 1 μM final concentration; 15 hours culture; nuclei confirmed by Hoechst staining. How it is done:
The present inventors measured the behavior of Cdc42 protein in HUVEC with an HMG-CoA reductase inhibitor, particularly pitavastatin. For this measurement, a gene encoding a Cdc42/fluorescence protein GFP fusion protein was introduced into HUVEC to prepare a transformed cell expressing a GFP/Cdc42 fusion protein. This transformed cell was cultured, and the state of Cdc42 distributed in the cell in the presence or absence of pitavastatin was examined by observing the fluorescence of GFP. A gene encoding the whole area of a Cdc42 translation region was introduced into a predetermined position of a commercial plasmid pEGFP-C1 for preparation of a fusion protein consisting of GFP and a desired protein, to construct a plasmid comprising the GFP-Cdc42 gene. After […] were put to a 6-well plate and then cultured overnight in EGM-2 medium. Using Fugene 6, the plasmid construct DNA prepared above was added in an amount of 0.8 μg/well to the cells. The cells were further cultured for 21 hours in EGM-2 medium, and then the fluorescence of GFP was observed under a fluorescence microscope. […] And then the cells were subjected to stationary culture for 15 hours, fixed onto a prepared slide and observed under a fluorescence microscope. […]

In experiment [1] the test system is vascular endothelial cells. The conditions noted are these: cited from earlier work.

Consider `O=C(O)C[C@H](O)C[C@H](O)/C=C/c1c(C2CC2)nc2ccccc2c1-c1ccc(F)cc1` [pitavastatin, (3R,5S,6E)-7-[2-cylopropyl-4-(4-fluorophenyl)-3-quinolyl]-3,5-dihydroxy-6-heptenoic acid], for which the “Distribution of GFP-Cdc42 in the cell (transfer into the nucleus)” value in the experiment with Cdc42 protein was “GFP-Cdc42 is transferred to a nucleus”. For the same compound, in experiment [1], the “Expression of NO synthase and thrombomodulin” value is listed as “promotes expression of NO synthase”; the “Expression of PTX3” value was “suppresses expression of PTX3”; the “Expression of inflammatory cytokine IL-8 or MCP-1, endothelin and PAI-1” value was “suppresses expression of inflammatory cytokine IL-8 or MCP-1, expression of endothelin and expression of PAI-1”.

Source of the values: patent US8252524B2, “Method of screening pharmaceutical compositions that promote nuclear transfer of Cdc42 protein” (Kowa Company, Ltd., priority 2004, dated 2012).
